{
  "source": "patent US7399638B2",
  "about": "“Prediction method for lipidosis” (Takeda Pharmaceutical Company Limited, priority 2003, dated 2008)",
  "key": {"[1]": {"test_system": "Crj: CD(SD)IGS rats", "conditions": "rat, in vivo", "experimental": "(§1) The following 10 kinds of commercially available drugs were examined as the test compounds for a potential of inducing PLsis by histopathological examination and peripheral blood lymphocyte testing.\n(§2) The following experiments were performed using the prematurely autopsied animals.\n(§3) The high-dose dosing suspension was diluted about 3 fold and 10 fold with dispersant/solvent to prepare intermediate- and low-dose dosing suspensions. […] [For LD50, the Summary Basis of Approval (FDA) for each drug was referenced to.]\n(§4) The animals were examined for mortality, general conditions, body weight, food consumption and the like using PM4800 (Mettler) and EB3200D (Shimadzu Corporation)."}, "[2]": {"test_system": "Crj: CD(SD)IGS rats", "conditions": "male, rat, in vivo, 3 days", "experimental": "as §1, §2, §3, §4\nHematological examination was performed for parameters such as RBC count, hematocrit, hemoglobin concentration, mean corpuscular hemoglobin (MCH), mean corpuscular hemoglobin concentration (MCHC), mean corpuscular volume (MCV), platelet count, WBC count, reticulocyte count, differential WBC, and vacuolated lymphocyte ratio (for PLsis-inducing compounds only) using ADVIA120 (Bayer Medical Ltd.) and E-4000 (Sysmex Corporation)."}, "[3]": {"test_system": "Crj: CD(SD)IGS rats", "assay": "Urinary PAG/hippuric acid ratio by 1H NMR in rats", "protocol": "During the urine pooling, the collecting vessels were kept in an ice-cooled condition. After the urine collection, the urine was centrifuged at 1500×g for 10 minutes, and not less than 1 mL of the supernatant was collected and stored under freezing (below −70° C.) in a microtube in an ultralow-temperature freezer until the measurement. For the negative control group, 24-hour pooled urine was collected under ice cooling; after the urine collection, the urine was stored at −30° C. until the measurement."}, "[4]": {"conditions": "rat urine, 30 mg/kg/day by gavage, 3 days, mean n = 3-4"}, "[5]": {"conditions": "rat urine, 100 mg/kg/day by gavage, 3 days, mean n = 3-4"}, "[6]": {"conditions": "rat urine, 300 mg/kg/day by gavage, 3 days, mean n = 3-4"}, "[7]": {"conditions": "rat urine, 25 mg/kg/day by gavage, 3 days, mean n = 3-4"}, "[8]": {"conditions": "rat urine, 75 mg/kg/day by gavage, 3 days, mean n = 3-4"}, "[9]": {"conditions": "rat urine, 250 mg/kg/day by gavage, 3 days, mean n = 3-4"}, "[10]": {"conditions": "rat 24-hour pooled urine, 30 mg/kg/day by gavage, 4 days, negative control drug, mean n = 2-4"}, "[11]": {"conditions": "rat 24-hour pooled urine, 100 mg/kg/day by gavage, 4 days, negative control drug, mean n = 2-4"}},
  "note": "Read-outs that look alike come from different tables or passages of the source. Marks after values point to notes of the source that are not given here.",
  "data": [
    {"smiles": "CNCCC(Oc1ccc(C(F)(F)F)cc1)c1ccccc1", "note": "(stereo not shown) [Fluoxetine, fluoxetine]", "values": [
      {"measurement": "Histopathological changes (PLsis): Liver", "setting": "[1]; 30 mg/kg/day", "result": "+"},
      {"measurement": "Histopathological changes (PLsis): Lung", "setting": "[1]; 30 mg/kg/day", "result": "+"},
      {"measurement": "Histopathological changes (PLsis): Lymph node", "setting": "[1]; 30 mg/kg/day", "result": "+"},
      {"measurement": "Histopathological changes (PLsis): Others", "setting": "[1]; 30 mg/kg/day", "result": "Brain"},
      {"measurement": "Histopathological changes (PLsis): Spleen", "setting": "[1]; 30 mg/kg/day", "result": "−"},
      {"measurement": "Histopathological changes (PLsis): Liver", "setting": "[1]; 100 mg/kg/day", "result": "+"},
      {"measurement": "Histopathological changes (PLsis): Lung", "setting": "[1]; 100 mg/kg/day", "result": "+"},
      {"measurement": "Histopathological changes (PLsis): Lymph node", "setting": "[1]; 100 mg/kg/day", "result": "+"},
      {"measurement": "Histopathological changes (PLsis): Others", "setting": "[1]; 100 mg/kg/day", "result": "Brain"},
      {"measurement": "Histopathological changes (PLsis): Spleen", "setting": "[1]; 100 mg/kg/day", "result": "−"},
      {"measurement": "Histopathological changes (PLsis): Liver", "setting": "[1]; 300 mg/kg/day", "result": "+"},
      {"measurement": "Histopathological changes (PLsis): Lung", "setting": "[1]; 300 mg/kg/day", "result": "+"},
      {"measurement": "Histopathological changes (PLsis): Lymph node", "setting": "[1]; 300 mg/kg/day", "result": "−"},
      {"measurement": "Histopathological changes (PLsis): Others", "setting": "[1]; 300 mg/kg/day", "result": "−"},
      {"measurement": "Histopathological changes (PLsis): Spleen", "setting": "[1]; 300 mg/kg/day", "result": "−"},
      {"measurement": "Mean vacuolated lymphocyte ratio", "setting": "[2]; 30 mg/kg/day", "result": 7, "unit": "%"},
      {"measurement": "Mean vacuolated lymphocyte ratio", "setting": "[2]; 100 mg/kg/day", "result": 28, "unit": "%"},
      {"measurement": "Mean vacuolated lymphocyte ratio", "setting": "[2]; 300 mg/kg/day", "result": 31, "unit": "%"},
      {"measurement": "PAG + hippuric acid/creatinine", "setting": "[3]; [4]", "result": 1.13},
      {"measurement": "PAG/PAG + hippuric acid", "setting": "[3]; [4]", "result": "15.60* %"},
      {"measurement": "PAG/creatinine (first term of PAG + hippuric acid)", "setting": "[3]; [4]", "result": 0.17},
      {"measurement": "PAG/hippuric acid", "setting": "[3]; [4]", "result": "18.58* %"},
      {"measurement": "hippuric acid/creatinine (second term of PAG + hippuric acid)", "setting": "[3]; [4]", "result": 0.96},
      {"measurement": "PAG + hippuric acid/creatinine", "setting": "[3]; [5]", "result": 1.06},
      {"measurement": "PAG/PAG + hippuric acid", "setting": "[3]; [5]", "result": "25.90* %"},
      {"measurement": "PAG/creatinine (first term of PAG + hippuric acid)", "setting": "[3]; [5]", "result": 0.27},
      {"measurement": "PAG/hippuric acid", "setting": "[3]; [5]", "result": "36.86* %"},
      {"measurement": "hippuric acid/creatinine (second term of PAG + hippuric acid)", "setting": "[3]; [5]", "result": 0.79},
      {"measurement": "PAG + hippuric acid/creatinine", "setting": "[3]; [6]", "result": "0.67*"},
      {"measurement": "PAG/PAG + hippuric acid", "setting": "[3]; [6]", "result": "31.88* %"},
      {"measurement": "PAG/creatinine (first term of PAG + hippuric acid)", "setting": "[3]; [6]", "result": 0.20},
      {"measurement": "PAG/hippuric acid", "setting": "[3]; [6]", "result": "56.32* %"},
      {"measurement": "hippuric acid/creatinine (second term of PAG + hippuric acid)", "setting": "[3]; [6]", "result": 0.47}
    ]},
    {"smiles": "CCN(CC)CCCC(C)Nc1ccnc2cc(Cl)ccc12", "note": "(stereo not shown) [Chloroquine, chloroquine]", "values": [
      {"measurement": "PAG + hippuric acid/creatinine", "setting": "[3]; [7]", "result": 1.34},
      {"measurement": "PAG/PAG + hippuric acid", "setting": "[3]; [7]", "result": 13.25, "unit": "%"},
      {"measurement": "PAG/creatinine (first term of PAG + hippuric acid)", "setting": "[3]; [7]", "result": 0.18},
      {"measurement": "PAG/hippuric acid", "setting": "[3]; [7]", "result": 15.42, "unit": "%"},
      {"measurement": "PAG + hippuric acid/creatinine", "setting": "[3]; [8]", "result": 1.23},
      {"measurement": "PAG/creatinine (first term of PAG + hippuric acid)", "setting": "[3]; [8]", "result": 0.24},
      {"measurement": "hippuric acid/creatinine (second term of PAG + hippuric acid)", "setting": "[3]; [8]", "result": 1.00},
      {"measurement": "PAG + hippuric acid/creatinine", "setting": "[3]; [9]", "result": 1.29},
      {"measurement": "PAG/creatinine (first term of PAG + hippuric acid)", "setting": "[3]; [9]", "result": 0.52},
      {"measurement": "hippuric acid/creatinine (second term of PAG + hippuric acid)", "setting": "[3]; [9]", "result": 0.76}
    ]},
    {"smiles": "COc1ccc(C2CNC(=O)C2)cc1OC1CCCC1", "note": "(stereo not shown) [Rolipram, rolipram]", "values": [
      {"measurement": "Histopathological changes (PLsis): Liver", "setting": "[1]; 30 mg/kg/day", "result": "−"},
      {"measurement": "Histopathological changes (PLsis): Lung", "setting": "[1]; 30 mg/kg/day", "result": "−"},
      {"measurement": "Histopathological changes (PLsis): Lymph node", "setting": "[1]; 30 mg/kg/day", "result": "−"},
      {"measurement": "Histopathological changes (PLsis): Others", "setting": "[1]; 30 mg/kg/day", "result": "−"},
      {"measurement": "Histopathological changes (PLsis): Spleen", "setting": "[1]; 30 mg/kg/day", "result": "−"},
      {"measurement": "Histopathological changes (PLsis): Liver", "setting": "[1]; 100 mg/kg/day", "result": "−"},
      {"measurement": "Histopathological changes (PLsis): Lung", "setting": "[1]; 100 mg/kg/day", "result": "−"},
      {"measurement": "Histopathological changes (PLsis): Lymph node", "setting": "[1]; 100 mg/kg/day", "result": "−"},
      {"measurement": "Histopathological changes (PLsis): Others", "setting": "[1]; 100 mg/kg/day", "result": "−"},
      {"measurement": "Histopathological changes (PLsis): Spleen", "setting": "[1]; 100 mg/kg/day", "result": "−"},
      {"measurement": "PAG + hippuric acid/creatinine", "setting": "[3]; [10]", "result": 1.43},
      {"measurement": "PAG/PAG + hippuric acid", "setting": "[3]; [10]", "result": 17.48, "unit": "%"},
      {"measurement": "PAG/creatinine (first term of PAG + hippuric acid)", "setting": "[3]; [10]", "result": 0.25},
      {"measurement": "PAG/hippuric acid", "setting": "[3]; [10]", "result": 18.22, "unit": "%"},
      {"measurement": "hippuric acid/creatinine (second term of PAG + hippuric acid)", "setting": "[3]; [10]", "result": 1.18},
      {"measurement": "PAG + hippuric acid/creatinine", "setting": "[3]; [11]", "result": 1.02},
      {"measurement": "PAG/PAG + hippuric acid", "setting": "[3]; [11]", "result": 13.73, "unit": "%"},
      {"measurement": "PAG/creatinine (first term of PAG + hippuric acid)", "setting": "[3]; [11]", "result": 0.14},
      {"measurement": "PAG/hippuric acid", "setting": "[3]; [11]", "result": 16.29, "unit": "%"},
      {"measurement": "hippuric acid/creatinine (second term of PAG + hippuric acid)", "setting": "[3]; [11]", "result": 0.88}
    ]},
    {"smiles": "COc1ccc([C@]2(C#N)CC[C@@H](C(=O)O)CC2)cc1OC1CCCC1", "note": "[Ariflo]", "values": [
      {"measurement": "Histopathological changes (PLsis): Liver", "setting": "[1]; 30 mg/kg/day", "result": "−"},
      {"measurement": "Histopathological changes (PLsis): Lung", "setting": "[1]; 30 mg/kg/day", "result": "−"},
      {"measurement": "Histopathological changes (PLsis): Lymph node", "setting": "[1]; 30 mg/kg/day", "result": "−"},
      {"measurement": "Histopathological changes (PLsis): Others", "setting": "[1]; 30 mg/kg/day", "result": "−"},
      {"measurement": "Histopathological changes (PLsis): Spleen", "setting": "[1]; 30 mg/kg/day", "result": "−"},
      {"measurement": "Histopathological changes (PLsis): Liver", "setting": "[1]; 100 mg/kg/day", "result": "−"},
      {"measurement": "Histopathological changes (PLsis): Lung", "setting": "[1]; 100 mg/kg/day", "result": "−"},
      {"measurement": "Histopathological changes (PLsis): Lymph node", "setting": "[1]; 100 mg/kg/day", "result": "−"},
      {"measurement": "Histopathological changes (PLsis): Others", "setting": "[1]; 100 mg/kg/day", "result": "−"},
      {"measurement": "Histopathological changes (PLsis): Spleen", "setting": "[1]; 100 mg/kg/day", "result": "−"},
      {"measurement": "PAG + hippuric acid/creatinine", "setting": "[3]; [10]", "result": 1.34},
      {"measurement": "PAG/PAG + hippuric acid", "setting": "[3]; [10]", "result": 9.70, "unit": "%"},
      {"measurement": "PAG/creatinine (first term of PAG + hippuric acid)", "setting": "[3]; [10]", "result": 0.13},
      {"measurement": "PAG/hippuric acid", "setting": "[3]; [10]", "result": 12.16, "unit": "%"},
      {"measurement": "PAG + hippuric acid/creatinine", "setting": "[3]; [11]", "result": 1.14},
      {"measurement": "PAG/PAG + hippuric acid", "setting": "[3]; [11]", "result": 14.04, "unit": "%"},
      {"measurement": "PAG/creatinine (first term of PAG + hippuric acid)", "setting": "[3]; [11]", "result": 0.16},
      {"measurement": "PAG/hippuric acid", "setting": "[3]; [11]", "result": 13.91, "unit": "%"},
      {"measurement": "hippuric acid/creatinine (second term of PAG + hippuric acid)", "setting": "[3]; [11]", "result": 0.98}
    ]}
  ]
}
